Assay results published in paper PMC10011573, “Development of novel broad-spectrum antimicrobial lipopeptides derived from plantaricin NC8 β” (Scientific Reports, 2023).
Residues, ends and D or L forms follow the SMILES beside them. *: point of attachment. Heptanoyl = CCCCCCC(=O)*; Hexanoyl = CCCCCC(=O)*; Pentanoyl = CCCCC(=O)*

How the values were obtained:
E. coli (K-12 MG1655) [1] = type: cell-based; details: Table 6; K-12 MG1655; checkerboard assay, 50:50 PBS/LB-broth, 200 µL
S. aureus (ATCC 29213) = type: cell-based; details: Table 6; ATCC 29213; checkerboard assay, 50:50 PBS/LB-broth, 200 µL
Description: The broth microdilution method was used to determine minimal inhibitory concentration (MIC) and minimal bactericidal concentration (MBC), in accordance with the EUCAST standards for the broth microdilution method. […] In brief, two-fold serial dilutions of the lipopeptides were performed in a 96-well plate in PBS, with a final volume of 100 µl per well, after which 100 µl of LB-broth media containing approximately 5 × 10^5 CFU/ml of bacteria was added to each well. The plate was then incubated for 20 h in 37 °C on a shaker (400 rpm). The effect of lipopeptide-antibiotic combinations was investigated by performing checkerboard assays. The assays were performed in accordance with the MIC and MBC tests conducted above, but with horizontal and longitudinal two-fold serial dilutions of the tested compounds. […] The fractional inhibitory concentration (FIC) and fractional bactericidal concentration (FBC) were calculated by the equation (MIC or MBC of peptide in combination/MIC or MBC of peptide alone) + (MIC or MBC of antibiotic in combination/MIC or MBC of antibiotic alone). […] All experiments were repeated at least three times.

[2] = Carboxyfluorescein release assay, mammalian liposome model; type: biochemical; details: 65:5:30 POPC:POPS:Chol. liposomes, 25 µM lipid, 10 mM PBS pH 7.4, 10^–5–10^2 µM peptide, 60 min, fluorescence, Hill fit, n = 3; read-out: EC50 Mammalial (concentration that triggers 50% CF release)
Description: (§1) Liposomes were prepared by thin-film hydration method. Lipids stock solutions (10 mg/ml in chloroform, Avanti Polar Lipids, Inc., Alabaster, United States) of the lipids 1-palmitoyl-2-oleoyl-sn-glycero-3-phosphocholine (POPC), 1-palmitoyl-2-oleoyl-sn-glycero-3-phospho-L-serine (POPS), 1-Hexadecanoyl-2-(9Z-Octadecenoyl)-sn-Glycero-3-Phosphoglycerol (POPG) and Cholesterol (Chol) were employed. Bacterial liposomes were prepared with a 75:25 ratio of POPC:POPG and mammalian liposomes were prepared with a 65:5:30 ratio of POPC:POPS:Chol. Lipid solutions were thoroughly homogenised, and the solvent was evaporated with the use of a dry N2 steam to yield a lipid cake. […] The lipid film was subsequently hydrated with a 5(6)-CF solution (50 mM CF, 10 mM PBS, 90 mM NaCl, pH 7.4). Following a 10 min incubation on orbital shaker (50 min^−1), the solution was vortexed for 60 s on medium speed. A mini extruder (Avanti Polar Lipids, Inc., United States) was employed and 21 extrusions were performed through a 0.1 µm filter membrane (Nuclepore track-etched hydrophilic membrane, Cytiva, Whatman, MA, United States), resulting in monodispersed unilamellar liposomes. Directly before use the liposomes were purified from unencapsulated CF by filtration through a gel filtration column (PD Minitrap G-25 column, Cytiva, United States), against PBS buffer (10 mM, pH 7.4).
(§2) Peptide and lipopeptide activity towards liposome models were evaluated using a carboxyfluorescein (CF) release assay. Liposomes were diluted in PBS (10 mM, pH 7.4) to a final lipid concentration of 25 µM and incubated with peptides (10^–5–10^2 µM) in a 96-well plate (n = 3). CF release was monitored using an Infinite M1000 PRO plate reader every 2.5 min for 1 h. Full (100%) CF release was obtained by addition of 1% Triton X-100 solution followed by 10 min incubation. CF release percentage was evaluated according to the formula 100 * (F − F0)/(FT − F0), where F indicates the instantaneous fluorescence, FT the total fluorescence and F0 the background fluorescence prior to peptide addition. Data were fitted to a Hill-1 curve using MATLAB R2019a (The MathWorks Inc., Natick, Massachusetts, United States) and the half maximum effective concentration (EC50) was extracted.

K. pneumoniae = details: 20 h
Description: (§3) S. aureus (ATCC 29213, MSSA, ATCC, Manassas, VA), E. coli (K-12 MG1655) and clinical isolates of S. aureus, E. coli, E. faecium, K. pneumoniae, A. baumannii, P. aeruginosa and E. cloacae obtained from the Department of Laboratory Medicine at Örebro University Hospital were streaked on Luria–Bertani (LB) agar plates and incubated at 37 °C overnight. Single colonies were inoculated into 5 ml of LB broth and incubated on a shaker (400 rpm) at 37 °C overnight. The bacterial concentrations were determined by viable count and were adjusted to correlate with approximately 10^9 CFU/ml.
(§4) The broth microdilution method was used to determine minimal inhibitory concentration (MIC) and minimal bactericidal concentration (MBC), in accordance with the EUCAST standards for the broth microdilution method. Two-fold serial dilutions of the lipopeptides were used, and the final concentrations ranged from 0.19 to 100 µM. In brief, two-fold serial dilutions of the lipopeptides were performed in a 96-well plate in PBS, with a final volume of 100 µl per well, after which 100 µl of LB-broth media containing approximately 5 × 10^5 CFU/ml of bacteria was added to each well. The plate was then incubated for 20 h in 37 °C on a shaker (400 rpm). The effect of lipopeptide-antibiotic combinations was investigated by performing checkerboard assays. The assays were performed in accordance with the MIC and MBC tests conducted above, but with horizontal and longitudinal two-fold serial dilutions of the tested compounds. […] The fractional inhibitory concentration (FIC) and fractional bactericidal concentration (FBC) were calculated by the equation (MIC or MBC of peptide in combination/MIC or MBC of peptide alone) + (MIC or MBC of antibiotic in combination/MIC or MBC of antibiotic alone). Synergy was defined as FIC/FBC ≤ 0.5, additive when 0.5 < FIC/FBC ≤ 1, indifferent when 1 < FIC/FBC < 2 and antagonistic when FIC/FBC ≥ 2. All experiments were repeated at least three times.

E. cloacae = details: 20 h
Description: as §3, §4

P. aeruginosa = details: 20 h
Description: as §3, §4

A. baumannii = details: 20 h
Description: as §3, §4

E. faecium = details: 20 h
Description: as §3, §4

E. coli (K-12 MG1655) [3] = details: Table 3; K-12 MG1655; broth microdilution, 50:50 PBS/LB-broth, 200 µL, 20 h, 37 °C
Description: as §3, §4

[4] = tested on: S. aureus (ATCC 29213, MSSA); details: ATCC 29213, 20 h
Description: as §3, §4

human erythrocytes = experiment: Hemolytic activity; type: cell-based; details: 15% suspension in PBS, 1 h, 37 °C, absorbance 540 nm, highest tested concentration 100 µM
Description: The hemolytic activity of the lipopeptides was investigated by collecting blood from healthy volunteers in heparinized vacutainers. Briefly, the blood was centrifuged at 600 × g for 5 min and the erythrocyte pellet was washed three times in PBS. The cells were then suspended in PBS and added to 96-well plates (15% erythrocyte suspension/well), containing the lipopeptides with two-fold serial dilution. The plates were incubated for 1 h at 37 °C followed by centrifugation for 5 min at 900×g and absorbance measurement of the supernatants at 540 nm. Hemolytic activity (%) was calculated by subtracting the negative control from all values and normalization against the positive control (0.5% Triton X-100), that was set to 100%. All experiments, each in duplicate, were repeated three times.

[5] = Carboxyfluorescein release assay, bacterial liposome model; type: biochemical; details: 75:25 POPC:POPG liposomes, 25 µM lipid, 10 mM PBS pH 7.4, 10^–5–10^2 µM peptide, 60 min, fluorescence, Hill fit, n = 3; read-out: EC50 Bacterial (concentration that triggers 50% CF release)
Description: as §1, §2

Structure (SMILES)	E. coli MBC, antibiotic alone (E. coli (K-12 MG1655) [1]) [µg/mL]	E. coli MIC, antibiotic alone (E. coli (K-12 MG1655) [1]) [µg/mL]	EC50 [2] [nM]	E. coli MBC (E. coli (K-12 MG1655) [3]) [µM]	E. coli MIC (E. coli (K-12 MG1655) [3]) [µM]	S. aureus MBC [4] [µM]	S. aureus MIC [4] [µM]	HC, hemolytic concentration at 5% hemolytic activity (human erythrocytes) [µM]	EC50 [5] [nM]	also measured
CO/N=C(\C(=O)N[C@@H]1C(=O)N2C(C(=O)O)=C(COC(C)=O)CS[C@H]12)c1csc(N)n1 [Cefotaxim]	0.5	0.5								
O=C(O)c1cn(C2CC2)c2cc(N3CCNCC3)c(F)cc2c1=O [Ciprofloxacin]	0.125	0.125								S. aureus MBC, antibiotic alone (S. aureus (ATCC 29213)): 0.25 µg/mL; S. aureus MIC, antibiotic alone (S. aureus (ATCC 29213)): 0.25 µg/mL
CNC(C)C1CCC(N)C(OC2C(N)CC(N)C(OC3OCC(C)(O)C(NC)C3O)C2O)O1 (stereo not drawn) [Gentamicin]	1	1								
CCCCC(=O)N[C@@H](CC(C)C)C(=O)NCC(=O)N[C@@H](CC(C)C)C(=O)N[C@@H](CCCCN)C(=O)N[C@@H](CC(C)C)C(=O)N[C@@H](CC(C)C)C(=O)N[C@@H](Cc1c[nH]c2ccccc12)C(=O)N[C@@H](CO)C(=O)N[C@@H](C)C(=O)N[C@@H](Cc1ccc(O)cc1)C(=O)N[C@@H](CCCCN)C(=O)N[C@@H](Cc1c[nH]cn1)C(=O)N[C@@H](CCCNC(=N)N)C(=O)N[C@@H](CCCCN)C(=O)N[C@H](C(=O)N[C@@H](CC(C)C)C(N)=O)[C@@H](C)O [L-6-C5-Leu] (Pentanoyl-LGLKLLWSAYKHRKTL-NH2)			3990	6.2	6.2	3.1	3.1	> 100	110	MBC (K. pneumoniae): 50 µM; MIC (K. pneumoniae): 25 µM; MBC (E. cloacae): > 100 µM; MIC (E. cloacae): > 100 µM; MBC (P. aeruginosa): 50 µM; MIC (P. aeruginosa): 25 µM; MBC (A. baumannii): 3.1 µM; MIC (A. baumannii): 3.1 µM; MBC (E. faecium): 6.3 µM; MIC (E. faecium): 3.1 µM
CCCCCC(=O)N[C@@H](CC(C)C)C(=O)NCC(=O)N[C@H](C(=O)N[C@@H](CCCCN)C(=O)N[C@H](C(=O)N[C@@H](CC(C)C)C(=O)N[C@@H](Cc1c[nH]c2ccccc12)C(=O)N[C@@H](CO)C(=O)N[C@@H](C)C(=O)N[C@@H](Cc1ccc(O)cc1)C(=O)N[C@@H](CCCCN)C(=O)N[C@@H](Cc1c[nH]cn1)C(=O)N[C@@H](CCCNC(=N)N)C(=O)N[C@@H](CCCCN)C(=O)N[C@H](C(=O)N[C@H](C(N)=O)[C@@H](C)CC)[C@@H](C)O)[C@@H](C)CC)[C@@H](C)CC [L-6-C6] (Hexanoyl-LGIKILWSAYKHRKTI-NH2)			3570	6.2	6.2	6.2	3.1	> 100	160	
CCCCCCC(=O)N[C@@H](CC(C)C)C(=O)NCC(=O)N[C@@H](CC(C)C)C(=O)N[C@@H](CCCCN)C(=O)N[C@@H](CC(C)C)C(=O)N[C@@H](CC(C)C)C(=O)N[C@@H](Cc1c[nH]c2ccccc12)C(=O)N[C@@H](CO)C(=O)N[C@@H](C)C(=O)N[C@@H](Cc1ccc(O)cc1)C(=O)N[C@@H](CCCCN)C(=O)N[C@@H](Cc1c[nH]cn1)C(=O)N[C@@H](CCCNC(=N)N)C(=O)N[C@@H](CCCCN)C(=O)N[C@H](C(=O)N[C@@H](CC(C)C)C(N)=O)[C@@H](C)O [L-6-C7-Leu] (Heptanoyl-LGLKLLWSAYKHRKTL-NH2)			1100	6.2	6.2	1.5	1.5	30	120	
CO[C@H]1/C=C/O[C@@]2(C)Oc3c(C)c(O)c4c(O)c(c(/C=N/N5CCN(C)CC5)c(O)c4c3C2=O)NC(=O)/C(C)=C\C=C\[C@H](C)[C@H](O)[C@@H](C)[C@@H](O)[C@@H](C)[C@H](OC(C)=O)[C@@H]1C [Rifampicin]	100									S. aureus MBC, antibiotic alone (S. aureus (ATCC 29213)): 0.062 µg/mL; S. aureus MIC, antibiotic alone (S. aureus (ATCC 29213)): 0.062 µg/mL
